Assay results: patent EP4610269A1, “UROKINASE PLASMINOGEN ACTIVATOR SURFACE RECEPTOR (UPAR) LIGANDS FOR DIAGNOSTIC OR THERAPEUTIC USE” (3B Pharmaceuticals GmbH, priority 2024, dated 2025)
Where two headings read alike, the source gives them in different places. *1 amine or outer side, *2 acyl side, *3 side chain or, on linkers, in order; H or OH if unused. Where a SMILES comes first, the peptide text is derived from it. Bridges are numbered along the chain shown (N, C = ends). [ ]: non-standard residue; d: D form. The star is where a group is joined. X6 = O=C(O)CN1CCN(CC(=O)O)CCN(CC(=O)NCCCOCCOCCOCCCN*)CCN(CC(=O)O)CC1; DOTA = O=C(O)CN1CCN(CC(=O)O)CCN(CC(=O)*)CCN(CC(=O)O)CC1; Pro(cis-4-F) = O=C(O)[C@@H]1C[C@H](F)CN1; Gly(cPent) = N[C@H](C(=O)O)C1CCCC1; Propanoyl(3-NMe2) = CN(C)CCC(=O)*; Hyp = O=C(O)[C@@H]1C[C@@H](O)CN1; NMeI = CC[C@H](C)[C@H](NC)C(=O)O; 4Pal = N[C@@H](Cc1ccncc1)C(=O)O; Pentanoyl(4-Me) = CC(C)CCC(=O)*; Cit = NC(=O)NCCC[C@H](N)C(=O)O; NMeNle = CCCC[C@H](NC)C(=O)O; Suc = O=C(CCC(=O)[*:2])[*:1]; Nle = CCCC[C@H](N)C(=O)O; Nva = CCC[C@H](N)C(=O)O; Pentanoyl = CCCCC(=O)*; βAla = NCCC(=O)O

What was measured:
[1] = biological target: T1, uPAR-expressing HEC-265 human endometrial adenocarcinoma cells (Homo sapiens, UniProt Q03405); assay: Competitive FACS binding assay; conditions: pIC50 category of FACS binding
T1 construct: Cell surface uPAR-expressing HEC-265 human endometrial adenocarcinoma cells; host or cells: HEC-265
T1 sequence (Q03405 23-335): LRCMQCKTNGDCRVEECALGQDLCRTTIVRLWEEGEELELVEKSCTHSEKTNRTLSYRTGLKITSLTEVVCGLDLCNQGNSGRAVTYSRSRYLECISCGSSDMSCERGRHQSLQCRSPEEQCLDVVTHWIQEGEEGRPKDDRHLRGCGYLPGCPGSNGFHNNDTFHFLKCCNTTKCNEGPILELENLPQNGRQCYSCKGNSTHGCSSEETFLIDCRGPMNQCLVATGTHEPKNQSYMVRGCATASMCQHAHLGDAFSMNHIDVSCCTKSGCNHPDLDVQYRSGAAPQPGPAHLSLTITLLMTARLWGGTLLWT
Outline: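 Competitive displacement of a 10 nM biotinylated peptide from HEC-265 cells (1 h, 4 °C, PBS/1% BSA), detected via APC-streptavidin by flow cytometry. pIC50 from four-parameter logistic fit of median fluorescence versus concentration.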

human uPAR (uPAR-Fc) = biological target: T2, human uPAR (uPAR-Fc) (Homo sapiens, UniProt Q03405); assay: Surface plasmon resonance (SPR) assay, single cycle kinetics; type: binding; conditions: pKD category for uPAR SPR activity assay, uPAR-Fc on Protein A-Chip, 25°C, read-out: pKD CAT (converted)
T2 construct: comprising amino acids Leu23-Arg303 according to UniProt entry Q03405.1; purchased R&D Systems 10378-UK-100
T2 sequence (Q03405 23-303): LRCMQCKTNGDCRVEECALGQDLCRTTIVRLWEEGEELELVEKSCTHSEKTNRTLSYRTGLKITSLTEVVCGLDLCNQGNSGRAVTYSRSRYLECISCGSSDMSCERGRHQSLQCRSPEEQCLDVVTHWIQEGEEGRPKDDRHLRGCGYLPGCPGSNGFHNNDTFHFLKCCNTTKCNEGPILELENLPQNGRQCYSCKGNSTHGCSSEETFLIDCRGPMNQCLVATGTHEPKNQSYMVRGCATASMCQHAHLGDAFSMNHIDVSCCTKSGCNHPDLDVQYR
Outline: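 uPAR-Fc (Leu23-Arg303 extracellular domains, human IgG1 Fc) captured on Protein A chip to ~2000 RU; single-cycle kinetics at 25°C in HEPES running buffer pH 7.4 with 0.1% DMSO. KD from double-referenced sensorgrams fitted to 1:1 Langmuir model, reported as pKD.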

Compound | IC50 [1] [nM] | Kd (human uPAR (uPAR-Fc)) [nM] | Kd (human uPAR (uPAR-Fc); single cycle kinetics) [nM]
CC[C@H](C)[C@@H]1NC(=O)[C@@H](C)NC(=O)[C@@H]2CCCN2C(=O)[C@H](Cc2ccccc2)NC(=O)[C@H](Cc2ccc(O)cc2)NC(=O)[C@H](CCC(N)=O)NC(=O)[C@H](CCCNC(N)=O)NC(=O)[C@@H](NC(=O)CCN(C)C)CSSC[C@@H](C(N)=O)NC(=O)[C@H](CC(C)C)NC1=O [UPAR-333, Dmba-[Cys-Cit-Gln-Tyr-Phe-Pro-ala-Ile-Leu-Cys]-NH2] ({Propanoyl(3-NMe2)}-C[Cit]QYFP[dA]ILC-NH2; disulfide 1-10) | 39.8 to 100 | > 100 | 
CC[C@H](C)[C@@H]1NC(=O)[C@@H](C)NC(=O)[C@@H]2CCCN2C(=O)[C@H](Cc2ccccc2)NC(=O)[C@H](Cc2ccc(O)cc2)NC(=O)[C@H](CCC(N)=O)NC(=O)[C@H](CCCNC(N)=O)NC(=O)[C@@H](NC(=O)CNC(C)=O)CSSC[C@@H](C(N)=O)NC(=O)[C@H](CC(C)C)NC1=O [UPAR-334, Ac-Gly-[Cys-Cit-Gln-Tyr-Phe-Pro-ala-Ile-Leu-Cys]-NH2] (Ac-GC[Cit]QYFP[dA]ILC-NH2; disulfide 2-11) | ≥ 126 | > 100 | 
CCCCC(=O)N[C@H]1CSSC[C@@H](C(N)=O)NC(=O)[C@H](CCC)NC(=O)[C@H]([C@@H](C)CC)NC(=O)[C@@H]2C[C@@H](O)CN2C(=O)[C@@H]2CCCN2C(=O)[C@H](Cc2ccccc2)NC(=O)[C@H](Cc2ccncc2)NC(=O)[C@H](CCCCNC(=O)CN2CCN(CC(=O)O)CCN(CC(=O)O)CCN(CC(=O)O)CC2)NC(=O)[C@H](CCCNC(N)=O)NC1=O [UPAR-336, Pent-[Cys-Cit-Lys(DOTA)-Ppa-Phe-Pro-Hyp-Ile-Nva-Cys]-NH2] (Pentanoyl-C[Cit]K(DOTA)[4Pal]FP[Hyp]I[Nva]C-NH2; disulfide 1-10) | ≤ 10 | < 1.58 | 
CCCCC(=O)N[C@H]1CSSC[C@@H](C(N)=O)NC(=O)[C@H](CCC)NC(=O)[C@H]([C@@H](C)CC)NC(=O)[C@@H]2C[C@@H](O)CN2C(=O)[C@H](CCCC)N(C)C(=O)[C@H](Cc2ccccc2)NC(=O)[C@H](Cc2ccc(O)cc2)NC(=O)[C@H](CCC(N)=O)NC(=O)[C@H](CCCNC(=N)N)NC1=O [UPAR-337, Pent-[Cys-Arg-Gln-Tyr-Phe-Nmb-Hyp-Ile-Nva-Cys]-NH2] (Pentanoyl-CRQYF[NMeNle][Hyp]I[Nva]C-NH2; disulfide 1-10) | ≥ 126 | < 1.58 | 
CC[C@H](C)[C@@H]1NC(=O)[C@@H](C)NC(=O)[C@@H]2CCCN2C(=O)[C@H](Cc2ccccc2)NC(=O)[C@H](Cc2ccc(O)cc2)NC(=O)[C@H](C)NC(=O)[C@H](CCCNC(N)=O)NC(=O)[C@@H](NC(=O)CCC(C)C)CSSC[C@@H](C(N)=O)NC(=O)[C@H](CC(C)C)NC1=O [UPAR-339, iHex-[Cys-Cit-Ala-Tyr-Phe-Pro-ala-Ile-Leu-Cys]-NH2] ({Pentanoyl(4-Me)}-C[Cit]AYFP[dA]ILC-NH2; disulfide 1-10) | ≤ 10 | 1.58 to 10 | 
CC[C@H](C)[C@H]1C(=O)N[C@@H](CC(C)C)C(=O)N[C@H](C(N)=O)CSSC[C@H](NC(=O)CCC(C)C)C(=O)N[C@@H](CCCNC(N)=O)C(=O)N[C@@H](CCC(N)=O)C(=O)N[C@@H](Cc2ccc(O)cc2)C(=O)N[C@@H](Cc2ccccc2)C(=O)N2CCC[C@H]2C(=O)N[C@H](C)C(=O)N1C [UPAR-340, iHex-[Cys-Cit-Gln-Tyr-Phe-Pro-ala-Nmi-Leu-Cys]-NH2] ({Pentanoyl(4-Me)}-C[Cit]QYFP[dA][NMeI]LC-NH2; disulfide 1-10) | ≥ 126 | 10 to 100 | 
CC[C@H](C)[C@@H]1NC(=O)[C@H](C)NC(=O)[C@@H]2CCCN2C(=O)[C@H](Cc2ccccc2)NC(=O)[C@H](Cc2ccc(O)cc2)NC(=O)[C@H](CCSC)NC(=O)[C@H](CCCNC(=N)N)NC(=O)[C@@H](NC(=O)[C@H](CC(C)C)NC(=O)[C@H](CC(=O)O)NC(C)=O)CSSC[C@@H](C(N)=O)NC(=O)[C@H](CC(C)C)NC1=O [UPAR-341, Ac-Asp-Leu-[Cys-Arg-Met-Tyr-Phe-Pro-Ala-Ile-Leu-Cys]-NH2] (Ac-DLCRMYFPAILC-NH2; disulfide 3-12) | ≤ 10 | < 1.58 | 
CCCCC(=O)N[C@H]1CSSC[C@@H](C(N)=O)NC(=O)[C@H](CCC)NC(=O)[C@H]([C@@H](C)CC)NC(=O)[C@@H]2C[C@@H](O)CN2C(=O)[C@@H]2CCCN2C(=O)[C@H](Cc2ccccc2)NC(=O)[C@H](Cc2ccc(O)cc2)NC(=O)[C@H](CCCCNC(=O)CN2CCN(CC(=O)O)CCN(CC(=O)O)CCN(CC(=O)O)CC2)NC(=O)[C@H](CO)NC1=O [UPAR-342, Pent-[Cys-Ser-Lys(DOTA)-Tyr-Phe-Pro-Hyp-Ile-Nva-Cys]-NH2] (Pentanoyl-CSK(DOTA)YFP[Hyp]I[Nva]C-NH2; disulfide 1-10) | ≤ 10 | < 1.58 | 
CC[C@H](C)[C@@H]1NC(=O)[C@@H](C)NC(=O)[C@@H]2CCCN2C(=O)[C@H](Cc2ccc(O)cc2)NC(=O)[C@H](Cc2ccc(O)cc2)NC(=O)[C@H](CCC(N)=O)NC(=O)[C@H](CCCNC(N)=O)NC(=O)[C@@H](NC(=O)CCC(C)C)CSSC[C@@H](C(N)=O)NC(=O)[C@H](CC(C)C)NC1=O [UPAR-343, iHex-[Cys-Cit-Gln-Tyr-Tyr-Pro-ala-Ile-Leu-Cys]-NH2] ({Pentanoyl(4-Me)}-C[Cit]QYYP[dA]ILC-NH2; disulfide 1-10) | 12.6 to 31.6 | 10 to 100 | 
CCCCC(=O)N[C@H]1CSSC[C@@H](C(N)=O)NC(=O)[C@H](CCC)NC(=O)[C@H]([C@@H](C)CC)NC(=O)[C@H](CC(=O)O)NC(=O)[C@@H]2CCCN2C(=O)[C@H](Cc2ccccc2)NC(=O)[C@H](Cc2ccc(O)cc2)NC(=O)[C@H](CCC(N)=O)NC(=O)[C@H](CCCNC(=N)N)NC1=O [UPAR-344, Pent-[Cys-Arg-Gln-Tyr-Phe-Pro-Asp-Ile-Nva-Cys]-NH2] (Pentanoyl-CRQYFPDI[Nva]C-NH2; disulfide 1-10) | ≤ 10 | < 1.58 | 
CCCC[C@@H]1NC(=O)[C@H]([C@@H](C)CC)NC(=O)[C@@H](C)NC(=O)[C@@H]2CCCN2C(=O)[C@H](Cc2ccccc2)NC(=O)[C@H](Cc2ccc(O)cc2)NC(=O)[C@H](CCC(N)=O)NC(=O)[C@H](CCCNC(N)=O)NC(=O)[C@@H](NC(=O)CCC(C)C)CSSC[C@@H](C(N)=O)NC1=O [UPAR-345, iHex-[Cys-Cit-Gln-Tyr-Phe-Pro-ala-Ile-Nle-Cys]-NH2] ({Pentanoyl(4-Me)}-C[Cit]QYFP[dA]I[Nle]C-NH2; disulfide 1-10) | ≤ 10 |  | 1.58 to 10
CCCC[C@H](NC(=O)CCC(=O)NCCCOCCOCCOCCCNC(=O)CN1CCN(CC(=O)O)CCN(CC(=O)O)CCN(CC(=O)O)CC1)C(=O)N[C@@H](CC(=O)O)C(=O)N[C@@H](CC(C)C)C(=O)N[C@H]1CSSC[C@@H](C(N)=O)NC(=O)[C@H](CC(C)C)NC(=O)[C@H]([C@@H](C)CC)NC(=O)[C@H](C)NC(=O)[C@@H]2CCCN2C(=O)[C@H](Cc2ccccc2)NC(=O)[C@H](Cc2ccc(O)cc2)NC(=O)[C@H](CCSC)NC(=O)[C@H](CCCNC(=N)N)NC1=O [UPAR-347, DOTA-Ttds-Nle-Asp-Leu-[Cys-Arg-Met-Tyr-Phe-Pro-Ala-Ile-Leu-Cys]-NH2] ({X6-Suc}-[Nle]DLCRMYFPAILC-NH2; disulfide 4-13) | ≤ 10 |  | < 1.58
CC(C)CCC(=O)N[C@H]1CSSC[C@@H](C(N)=O)NC(=O)[C@H](CC(C)C)NC(=O)[C@H](C2CCCC2)NC(=O)[C@@H](C)NC(=O)[C@@H]2CCCN2C(=O)[C@H](Cc2ccccc2)NC(=O)[C@H](Cc2ccc(O)cc2)NC(=O)[C@H](CCC(N)=O)NC(=O)[C@H](CCCNC(N)=O)NC1=O [UPAR-349, iHex-[Cys-Cit-Gln-Tyr-Phe-Pro-ala-Cpg-Leu-Cys]-NH2] ({Pentanoyl(4-Me)}-C[Cit]QYFP[dA][Gly(cPent)]LC-NH2; disulfide 1-10) | ≤ 10 |  | 1.58 to 10
CCCCC(=O)N[C@H]1CSSC[C@@H](C(=O)NCCC(N)=O)NC(=O)[C@H](CCC)NC(=O)[C@H]([C@@H](C)CC)NC(=O)[C@@H]2C[C@@H](O)CN2C(=O)[C@@H]2CCCN2C(=O)[C@H](Cc2ccccc2)NC(=O)[C@H](Cc2ccc(O)cc2)NC(=O)[C@H](CCC(N)=O)NC(=O)[C@H](CCCNC(N)=O)NC1=O [UPAR-353, Pent-[Cys-Cit-Gln-Tyr-Phe-Pro-Hyp-Ile-Nva-Cys]-Bal-NH2] (Pentanoyl-C[Cit]QYFP[Hyp]I[Nva]C[βAla]-NH2; disulfide 1-10) | 12.6 to 31.6 |  | 1.58 to 10
CC[C@H](C)[C@@H]1NC(=O)[C@@H](C)NC(=O)[C@@H]2C[C@H](F)CN2C(=O)[C@H](Cc2ccccc2)NC(=O)[C@H](Cc2ccc(O)cc2)NC(=O)[C@H](CCC(N)=O)NC(=O)[C@H](CCCNC(N)=O)NC(=O)[C@@H](NC(=O)CCC(C)C)CSSC[C@@H](C(N)=O)NC(=O)[C@H](CC(C)C)NC1=O [UPAR-354, iHex-[Cys-Cit-Gln-Tyr-Phe-4Cfp-ala-Ile-Leu-Cys]-NH2] ({Pentanoyl(4-Me)}-C[Cit]QYF[Pro(cis-4-F)][dA]ILC-NH2; disulfide 1-10) | ≤ 10 |  | < 1.58
